Data set [1] concerns the target T1, Heat shock protein HSP90 (Homo sapiens, UniProt P07900+P08238). To be noted: mcf7.
Description: Inhibition of human recombinant HSP90 in MCF7 cells assessed as Her2 degradation
Data set [2] has as its system MCF7. The data set is described as follows: Antiproliferative activity against human MCF7 cells by MTS assay. Format: functional, cell-based. A general note: Formazan colour is commonly taken as a measure of viable cells.
Data set [3] concerns the target T1, Heat shock protein HSP90. The note with it: mcf7. This is another data set of the same source.
Description: Binding affinity to human recombinant HSP90 in MCF7 cell lysates assessed as inhibition of biotinylated-geldanamycin binding
In data set [4] the test system is BT-474. The data set is described as follows: Antiproliferative activity against human BT474 cells by MTS assay. Type of data set: functional, cell-based.
The target of data set [5] is T1, Heat shock protein HSP90.
Description: Binding affinity to human recombinant HSP90 assessed as inhibition of biotinylated-geldanamycin binding
Data set [6] can be described thus: Solubility in mouse serum at pH 7.4. Type of data set: ADME, cell-free.
Data set [7] is described as follows: AUC in BALB/c mouse at 100 mg/kg, po. Type of data set: ADME, organism-based. Also noted: dose 100 mg/kg, route oral. To be noted: plasma.
Data set [8] in a line: Half life in BALB/c mouse at 100 mg/kg, po. The note with it: in vivo. Type of data set: ADME, organism-based. Details: dose 100 mg/kg, route oral.
The nature of data set [9]: Solubility in simulated gastric fluid at pH 2.0. Format: physicochemical.
The subject of data set [10] is NCI-N87. In words: Antitumor activity in human N87 cells xenografted mouse assessed as tumor growth inhibition at 60 mg/kg, po administered weekly 5-day-on and 2-day-off schedule for 5 weeks. Type of data set: functional. To be noted: read-out: TGI. For orientation: Xenograft models place foreign cells or tissue in a host animal.
The nature of data set [11]: Solubility in simulated intestinal fluid at pH 6.5. Format: physicochemical.
Data set [12] in a line: Cmax in BALB/c mouse at 100 mg/kg, po. Details: dose 100 mg/kg, route oral. The note with it: in vivo. Format: ADME, organism-based.
Data set [13] concerns Liver microsomes. The data set is described as follows: Metabolic stability in human liver microsomes. Type of data set: ADME, Microsome.
Data set [14] in a line: Tmax in BALB/c mouse at 100 mg/kg, po. Format: ADME, organism-based. The note with it: in vivo. Also noted: dose 100 mg/kg, route oral.
The test system of data set [15] is RPTEC. The data set is described as follows: Antiproliferative activity against human RPTEC. Format: cell-based.
The subject of data set [16] is NCI-N87. The data set is described as follows: Antitumor activity in human N87 cells xenografted mouse assessed as tumor growth inhibition at 125 mg/kg, po administered weekly 5-day-on and 2-day-off schedule for 5 weeks. Type of data set: functional. To be noted: read-out: TGI.
Data set [17] deals with RPTEC. The data set is described as follows: Selectivity index, ratio of IC50 for human RPTEC cells to IC50 for HT29 cells. Type of data set: functional, cell-based.
Data set [18] deals with RPTEC. The data set is described as follows: Selectivity index, ratio of IC50 for human RPTEC cells to IC50 for MCF7 cells. Format: functional, cell-based.
Data set [19] concerns HT-29. In words: Antiproliferative activity against human HT29 cells. Format: functional, cell-based.
Data set [20] can be described thus: Aqueous solubility of the compound. To be noted: aqueous medium. Format: physicochemical.
Data set [21] has as its target T1, Heat shock protein HSP90. To be noted: mcf7. This is another data set of the same source.
Description: Selectivity for HSP90 in MCF7 cells over HSP90 in NDF cells
Data set [22] deals with T1, Heat shock protein HSP90. To be noted: ndf.
Description: Binding affinity to HSP90 in human NDF cell lysates assessed as inhibition of biotinylated-geldanamycin binding
In data set [23] the test system is NCI-N87. In words: Antitumor activity in human N87 cells xenografted mouse assessed as tumor growth inhibition at 90 mg/kg, ip administered weekly 5-day-on and 2-day-off schedule for 5 weeks. The note with it: route intraperitoneal, read-out: TGI. Format: functional.

For orientation: IC50 means the concentration needed to halve the response being measured. Low readings indicate higher potency, high ones lower potency. The term solubility denotes the dissolved amount per volume that the medium holds. Read a low solubility as little dissolved substance. What is called AUC is concentration integrated over time. Read a high AUC as high exposure. Broadly, the half-life is the time needed for the level to fall by half in the phase considered. In general, Cmax refers to the highest concentration seen after dosing. As a reminder, the Tmax is the time at which the peak concentration occurs.

For `Cc1cnc(Cn2cnc3c(Cl)nc(N)nc32)c(C)c1[N+](=O)[O-]`, the half-inhibitory concentration (IC50) in [1] stood at 1000 nM.
For the compound `C#CCCCn1c(Cc2cc(OC)c(OC)c(OC)c2Cl)nc2c(N)nc(F)nc21`, the IC50 in data set [2] came out at 1200 nM.
`COc1cc(Cn2cnc3c(OC)nc(N)nc32)c(Br)c(OC)c1OC` registered an IC50 in [1] of 45000 nM.
On the same count and under the same terms, in the case of `CCOc1c(C)cnc(Cn2cnc3c(Cl)nc(N)nc32)c1C` it was 1500 nM; in that of `COc1cc(Cn2cnc3c(O)nc(N)nc32)c(Cl)c(OC)c1OC`, 700 nM.
In the case of `Cc1cnc(Cn2cnc3c(Cl)nc(N)nc32)c(C)c1C`, the IC50 in data set [3] worked out at 35 nM; in data set [4], 80 nM; in data set [2], 300 nM; in [1], 42 nM.
On to `Cc1cnc(Cn2cnc3c(Cl)nc(N)nc32)c(C)c1[S+](C)[O-]` (stereo unspecified), for which the IC50 is 10000 nM in [3] and more than 10000 nM in [1].
Take `COc1cc(Cn2cnc3c(S)nc(N)nc32)c(Br)c(OC)c1OC`: the IC50 in data set [1] came to 100000 nM.
Still for that read-out and setting: then `COc1cc(Cn2cnc3c(Cl)nc(N)nc32)cc(OC)c1OC`, with 2000 nM.
`COc1c(C)ncc(Cn2cnc3c(Cl)nc(N)nc32)c1C.Cl`: the IC50 was determined as 18 nM in [3]; 900 nM in data set [5]; 50 nM in [4]; 150 nM in data set [2]; 20 nM in [1]. The solubility was 186 µg/mL in data set [6], 451 µg/mL in data set [9] and 234 µg/mL in [11]. The AUC in [7] worked out at 9000 ng·h/mL. In data set [8], this compound showed a half-life of 54 min. For the same compound, the inhibition in vivo at 60 mg/kg in data set [10] was determined as 83%. Besides, the Cmax in data set [12] amounted to 28200 ng/mL. In data set [13], the Stability amounted to 83%. In data set [14], the Tmax is 6 min.
In the case of `COc1c(C)cnc(Cn2cnc3c(Cl)nc(N)nc32)c1C.Cl`, the IC50 amounted to 600 nM in [15], 100 nM in data set [4], 100 nM in data set [2] and 130 nM in [19]. Moreover, the solubility in [6] is 176 µg/mL; in [9] it was 240 µg/mL; in [11], 87 µg/mL. The compound also gave an AUC in data set [7] of 4800 ng·h/mL. In data set [8], this compound gave a half-life of 48 min. For the same compound, the Cmax in data set [12] is 10000 ng/mL. Moreover, the Stability in data set [13] is recorded as 86%. Further, the inhibition in vivo at 125 mg/kg in data set [16] turned out to be 87%. In data set [14], the Tmax came out at 6 min. In addition, the selectivity index is 5 in data set [17] and 6 in [18].
Consider `COc1ccc(OC)c(Cn2cnc3c(Cl)nc(N)nc32)c1`, for which, in data set [1], the IC50 worked out at 3000 nM.
In [20], `COc1cc(Cn2cnc3c(Cl)nc(N)nc32)c(Cl)c(OC)c1OC` showed a solubility of less than 1 µg/mL. In data set [1], this compound registered an IC50 of 50 nM.
Consider `Cc1cnc(Cn2cnc3c(Cl)nc(N)nc32)c(C)c1Br`, for which the IC50 in [3] amounted to 2 nM; in [15], 1300 nM; in data set [21], 400000 nM; in [4], 50 nM; in data set [2], 30 nM; in data set [22], 800 nM. Moreover, the IC50 came out at 15 nM in data set [1] and 130 nM in data set [19]. For the same compound, the selectivity index in [17] was 10; in data set [18], 43.
For the compound `Cc1cnc(Cn2cnc3c(Cl)nc(N)nc32)c(C)c1`, the results for the IC50 in [3] and in data set [1] were 4000 nM and 7500 nM, respectively.
In the case of `CSc1c(C)cnc(Cn2cnc3c(Cl)nc(N)nc32)c1C`, the 50% inhibitory concentration (IC50) is 40 nM in data set [3]; 2300 nM in [15]; 90 nM in [4]; 500 nM in [2]; 27 nM in [1]; 200 nM in [19]. Further, the values for the selectivity index in data set [17] and in [18] were 12 and 5, respectively.
`COc1cc(Cn2cnc3c(Br)nc(N)nc32)c(Br)c(OC)c1OC` yielded an IC50 in [1] of 55 nM.
On the same count and under the same terms, in the case of `Cc1cnc(Cn2cnc3c(Cl)nc(N)nc32)c(C)c1O` it was 100000 nM.
Turning to `COc1c(C)c(Cl)nc(Cn2cnc3c(Cl)nc(N)nc32)c1C`, the IC50 in [3] came out at 25 nM; in [4], 500 nM; in [2], 500 nM; in data set [1], 90 nM.
As for `Cc1cnc(Cn2cnc3c(Cl)nc(N)nc32)c(C)c1I`, the IC50 came to 3 nM in [3]; 150 nM in [15]; 333000 nM in data set [21]; 30 nM in data set [4]; 30 nM in data set [2]; 1000 nM in data set [22]. The IC50 in [1] was 9 nM; in data set [19] it was 23 nM. Besides, the selectivity index in data set [17] amounted to 7; in [18] it was 5.
For `COc1cc(Cn2cnc3c(C)nc(N)nc32)c(Cl)c(OC)c1OC`, the IC50 in data set [1] amounted to 1800 nM.
Consider `COc1cc(Cn2cnc3c(N)nc(N)nc32)c(Br)c(OC)c1OC`, for which, in data set [1], the IC50 came out at 17000 nM.
Still for that read-out and setting: in the case of `Cc1cnc(Cn2cnc3c(Cl)nc(N)nc32)c(C)c1OC(C)C` it was 1500 nM.
Still for that read-out and setting: then `Cc1cnc(Cn2cnc3c(Cl)nc(N)nc32)c(C)c1N`, with 5800 nM.
With `Cc1cnc(Cn2cnc3c(Cl)nc(N)nc32)c(C)c1Cl`, the IC50 was 10 nM in [3]; 5000 nM in data set [15]; 300 nM in [4]; 100 nM in data set [2]; 35 nM in data set [1]; 500 nM in data set [19]. Further, the selectivity index in data set [17] stood at 10; in data set [18], 50.
Take `COc1cc(Cn2cnc3cnc(N)nc32)c(Br)c(OC)c1OC`: the IC50 in data set [1] is 50000 nM.
Same read-out and setting: in the case of `COc1cc(Cn2cnc3c(Cl)nc(N)nc32)c(Br)c(OC)c1OC` it was 70 nM.
Same read-out and setting: in the case of `COc1cc(Cn2cnc3c(Cl)nc(N)nc32)c(I)c(OC)c1OC` it was 340 nM.
`C=CCNC1=C2C[C@@H](C)C[C@H](OC)[C@H](O)[C@@H](C)/C=C(\C)[C@H](OC(N)=O)[C@@H](OC)/C=C\C=C(/C)C(=O)NC(=CC1=O)C2=O` [TANESPIMYCIN]: the IC50 was 100 nM in data set [15], 10 nM in data set [4], 10 nM in data set [2] and 2 nM in data set [19]. Also, the inhibition in vivo at 90 mg/kg in data set [23] came out at 70%.
In the case of `COc1c(C)c[n+]([O-])c(Cn2cnc3c(Cl)nc(N)nc32)c1C`, the IC50 in data set [3] turned out to be 30 nM; in data set [5] it was 800 nM; in data set [4], 150 nM; in data set [2], 100 nM; in data set [1], 80 nM.
